Data reported in publication PMC11035414, “A comparison study of dynamic [^18F]Alfatide II imaging and [^11C]MET in orthotopic rat models of glioblastoma” (Journal of Cancer Research and Clinical Oncology, 2024).

Tests used:
[1] = test system: orthotopic GBM rat models (C6 glioma cells); test: Dynamic PET/MR imaging, semi-quantitative analysis (SUVmean, TNR, time-activity curves); conditions: in vivo
Procedure: C6 glioma cells from GuYan Biotech Co., Ltd. (Shanghai, China) were cultured in DMEM at 37 °C and 5% CO2. After two generations of cell culture, C6 cells were trypsinized and resuspended at the concentration of 1 × 10^7 cells/mL to prepare GBM model. […] After the hair on the top of the head was cut off, a small hole with a diameter of about 2 mm was drilled at the intersection of the left side of sagittal suture 3 mm and the front side of coronal suture 1 mm. […] After administering the injection, the syringe was carefully withdrawn. The burr hole was then sealed with bone wax, followed by suturing the skin closed. […] Simultaneous dynamic PET and MRI was performed with 150 mm field of view for whole-body mouse imaging. For [^18[…] imaging, the rat models received the intravenous bolus injection of 13.0 ± 2.1 MBq of the radiotracer. […] We conducted [^11C]MET and [^18[…] scans on 20 rats, with a time interval of no more than 48 h between the scans using the two tracers. […] On the PET image with both radiotracers, the MRI-based volume-of-interest (VOI) was manually delineated encompassing glioblastoma. […] The following parameters were extracted from TACs: time to peak (TTP) and slope of curve.

[2] = test system: C6 glioblastoma-bearing rats; test: Ex vivo biodistribution study (γ counter); conditions: rat, in vivo
Procedure: Biodistribution study: […] The tumors and major tissue organs (blood, brain, heart, lungs, liver, spleen, blander, kidneys, bowel, muscle, femur and tumor) were collected. Tissues and organs were washed with normal saline and dried, and weighed using an electronic scale. The radioactivity counts of tissues and organs were measured with a γ counter, and the corresponding radioactivity value (%ID/g) was calculated after time attenuation correction.

- SUVmean in contralateral normal brain tissue [1]: 0.39 ± 0.12
- tumor-to-normal brain ratio (TNR) [1]: 2.91 ± 0.81
- normal organ(s) with the highest uptake, ex vivo [2]: liver
SMILES: [11CH3]SCC[C@H](N)C(=O)O [[^11C]MET, [^11C]methionine]
